Converted amounts (≈) assume the structure as drawn.
Tests used:
Carbonic anhydrase 1 = Carbonic anhydrase 1 (Homo sapiens, UniProt P00915)
Description: Inhibition of human cloned Carbonic anhydrase I

Carbonic anhydrase 4 = molecular target: T1, Carbonic anhydrase 4 (Bos taurus, UniProt Q95323)
T1 sequence (Q95323 whole entry): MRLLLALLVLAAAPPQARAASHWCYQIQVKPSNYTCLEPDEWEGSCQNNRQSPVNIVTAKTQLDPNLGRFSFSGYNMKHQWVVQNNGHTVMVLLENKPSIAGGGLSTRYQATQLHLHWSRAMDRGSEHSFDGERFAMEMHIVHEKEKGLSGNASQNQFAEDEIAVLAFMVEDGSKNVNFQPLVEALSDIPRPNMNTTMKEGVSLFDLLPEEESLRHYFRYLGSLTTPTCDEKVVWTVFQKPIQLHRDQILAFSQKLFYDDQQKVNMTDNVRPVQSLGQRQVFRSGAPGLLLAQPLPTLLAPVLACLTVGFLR
Description: Inhibition of bovine Carbonic anhydrase IV determined by esterase method

Carbonic anhydrase 2 = Carbonic anhydrase 2 (Homo sapiens, UniProt P00918)
Description: Inhibition of human cloned Carbonic anhydrase II

Oryctolagus cuniculus [1] = species on record: Oryctolagus cuniculus
Description: Reduction of intraocular pressure in normotensive rabbits after treatment with 50 uL of compound (as HCl salt) at pH 5.5 in eye after 60 min from administration, to that of controls

Oryctolagus cuniculus [2] = species on record: Oryctolagus cuniculus; remark: listed apart in the source
Description: In vitro transcorneal accession rate (intact cornea) of compound was determined

Oryctolagus cuniculus [3] = species on record: Oryctolagus cuniculus; remark: listed apart in the source
Description: In vitro transcorneal accession rate (without epithelium) of compound was determined

[4] = octanol/water
Description: Partition coefficient (logD) (chloroform/buffer)

physchem = settings: buffer, pH 7.4
Description: Solubility (hydrochloride salt) in buffer at pH 7.4 and at 25 degree celsius.

Oryctolagus cuniculus [5] = species on record: Oryctolagus cuniculus; remark: listed apart in the source
Description: Reduction of intraocular pressure in normotensive rabbits after treatment with 50 uL of compound (as HCl salt) at pH 5.5 in eye after 30 min from administration, to that of controls

Oryctolagus cuniculus [6] = species on record: Oryctolagus cuniculus; remark: listed apart in the source
Description: Reduction of intraocular pressure in normotensive rabbits after treatment with 50 uL of compound (as HCl salt) at pH 5.5 in eye after 240 min from administration, to that of controls

Oryctolagus cuniculus [7] = species on record: Oryctolagus cuniculus; remark: listed apart in the source
Description: Reduction of intraocular pressure in normotensive rabbits after treatment with 50 uL of compound (as HCl salt) at pH 5.5 in eye after 90 min from administration, to that of controls

Oryctolagus cuniculus [8] = species on record: Oryctolagus cuniculus; remark: listed apart in the source
Description: Reduction of intraocular pressure in normotensive rabbits after treatment with 50 uL of compound (as HCl salt) at pH 5.5 in eye after 0 min from administration, to that of controls

Sequence of Carbonic anhydrase 1 (P00915 whole entry): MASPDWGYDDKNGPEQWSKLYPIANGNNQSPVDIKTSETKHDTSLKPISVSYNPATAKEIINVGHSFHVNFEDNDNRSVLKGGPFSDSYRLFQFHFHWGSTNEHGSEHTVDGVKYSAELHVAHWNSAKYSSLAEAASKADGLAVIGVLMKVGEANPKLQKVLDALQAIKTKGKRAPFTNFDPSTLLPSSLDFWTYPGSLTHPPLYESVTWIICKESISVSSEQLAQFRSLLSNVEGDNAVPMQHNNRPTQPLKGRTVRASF

Structure (SMILES) | Ki (Carbonic anhydrase 1) [nM] | Ki (Carbonic anhydrase 4) [nM] | Ki (Carbonic anhydrase 2) [nM] | Delta IOP (Oryctolagus cuniculus [1]) [mmHg] | Kin (Oryctolagus cuniculus [2]) [h⁻¹] | Kin (Oryctolagus cuniculus [3]) [h⁻¹] | logD [4] | solubility (physchem) [mM] | Delta IOP (Oryctolagus cuniculus [5]) [mmHg] | Delta IOP (Oryctolagus cuniculus [6]) [mmHg] | Delta IOP (Oryctolagus cuniculus [7]) [mmHg] | Delta IOP (Oryctolagus cuniculus [8]) [mmHg]
NS(=O)(=O)c1ccc(NCc2cc(=O)oc3cc(Cl)ccc23)c(I)c1 | 610 | 70 | 36 | – | – | – | – | – | – | – | – | –
NS(=O)(=O)c1cc(S(N)(=O)=O)c(NCc2cc(=O)oc3cc(Cl)ccc23)cc1Cl | 400 | 50 | 12 | – | – | – | – | – | – | – | – | –
NS(=O)(=O)c1cc(S(N)(=O)=O)c(NCc2cc(=O)oc3cc(Cl)ccc23)c(Cl)c1Cl | 500 | 49 | 18 | – | – | – | – | – | – | – | – | –
NS(=O)(=O)c1ccc(NCc2cc(=O)oc3cc(Cl)ccc23)c(Cl)c1 | 520 | 96 | 45 | – | – | – | – | – | – | – | – | –
Cn1nc(S(N)(=O)=O)s/c1=N\Cc1cc(=O)oc2cc(Cl)ccc12 | 29 | 16 | 6 | 6 | – | – | – | – | – | – | – | –
NS(=O)(=O)c1nnc(NN2C(=O)c3cccnc3C2=O)s1 | 39 | 18 | 8 | – | 2500 | 7600 | 0.315 | 72 (≈ 23.5 mg/mL) | – | – | – | –
NS(=O)(=O)c1cccc(NCc2cc(=O)oc3cc(Cl)ccc23)c1 | 20000 | 280 | 250 | – | – | – | – | – | – | – | – | –
Cn1nc(S(N)(=O)=O)s/c1=N\S(=O)(=O)c1ccc(NCc2cc(=O)oc3cc(Cl)ccc23)cc1 | 1 | 0.6 | 0.5 | – | – | – | – | – | – | – | – | –
NS(=O)(=O)c1nnc(NCc2cc(=O)oc3cc(Cl)ccc23)s1 | 36 | 15 | 7 | 5.8 | 2800 | 6500 | 0.558 | 54 (≈ 20.1 mg/mL) | 3.9 | 1.5 | 4.9 | 0
NS(=O)(=O)c1ccc(NCc2cc(=O)oc3cc(Cl)ccc23)c(F)c1 | 540 | 110 | 30 | – | – | – | – | – | – | – | – | –
NS(=O)(=O)c1ccc(CCNCc2cc(=O)oc3cc(Cl)ccc23)cc1 | 950 | 225 | 120 | – | – | – | – | – | – | – | – | –
NS(=O)(=O)c1ccc(CNCc2cc(=O)oc3cc(Cl)ccc23)cc1 | 1060 | 240 | 145 | – | – | – | – | – | – | – | – | –
NS(=O)(=O)c1nnc(NC(=O)CCNCc2cc(=O)oc3cc(Cl)ccc23)s1 | 12 | 16 | 2 | 8.3 | 3300 | 8400 | 0.683 | 62 (≈ 27.5 mg/mL) | 5.1 | 3.4 | 7.2 | 0
NS(=O)(=O)c1ccc(NCc2cc(=O)oc3cc(Cl)ccc23)c(Br)c1 | 600 | 78 | 33 | – | – | – | – | – | – | – | – | –
NS(=O)(=O)c1nnc(NS(=O)(=O)c2ccc(NCc3cc(=O)oc4cc(Cl)ccc34)cc2)s1 | 5 | 4 | 2 | – | – | – | – | – | – | – | – | –
NS(=O)(=O)c1ccccc1NCc1cc(=O)oc2cc(Cl)ccc12 | 21500 | 300 | 270 | – | – | – | – | – | – | – | – | –
NS(=O)(=O)c1ccc(NCc2cc(=O)oc3cc(Cl)ccc23)cc1 | 15000 | 170 | 125 | – | – | – | – | – | – | – | – | –
CCN(Cc1cc(=O)oc2cc(Cl)ccc12)C1CC(C)S(=O)(=O)c2sc(S(N)(=O)=O)cc21 (stereo not given) | 18000 | 25 | 8 | 3.7 | 2100 | 5900 | 1.762 | 41 (≈ 21.2 mg/mL) | 1.9 | 0 | 1.6 | 0
NS(=O)(=O)c1ccc(NS(=O)(=O)c2ccc(NCc3cc(=O)oc4cc(Cl)ccc34)cc2)cc1 | 33 | 14 | 3 | – | – | – | – | – | – | – | – | –
NS(=O)(=O)c1cccc(NS(=O)(=O)c2ccc(NCc3cc(=O)oc4cc(Cl)ccc34)cc2)c1 | 36 | 30 | 6 | – | – | – | – | – | – | – | – | –
NS(=O)(=O)c1ccc(NNCc2cc(=O)oc3cc(Cl)ccc23)cc1 | 21800 | 320 | 275 | – | – | – | – | – | – | – | – | –

Reference: ChEMBL document CHEMBL1133155, “Carbonic anhydrase inhibitors: topical sulfonamide antiglaucoma agents incorporating secondary amine moieties” (Bioorg Med Chem Lett, 2000)
